Test results: patent US10407691B2 (priority 2014, dated 2019)
“Also recorded” adds a separate entry of the source. Non-standard residues stand in square brackets, D forms with d. Residues, ends and D or L forms follow the SMILES beside them. sY = N[C@@H](Cc1ccc(OS(=O)(=O)O)cc1)C(=O)O

What was measured:
[1] = test system: Arabidopsis seedlings; design: species or system Arabidopsis thaliana; details: in vivo
[2] = target: T1, XA21 (Oryza sativa subsp. indica, UniProt Q1MX30); assay type: cell-based, Oryza sativa ssp. japonica
T1 sequence (Q1MX30 24-1025 limits assumed): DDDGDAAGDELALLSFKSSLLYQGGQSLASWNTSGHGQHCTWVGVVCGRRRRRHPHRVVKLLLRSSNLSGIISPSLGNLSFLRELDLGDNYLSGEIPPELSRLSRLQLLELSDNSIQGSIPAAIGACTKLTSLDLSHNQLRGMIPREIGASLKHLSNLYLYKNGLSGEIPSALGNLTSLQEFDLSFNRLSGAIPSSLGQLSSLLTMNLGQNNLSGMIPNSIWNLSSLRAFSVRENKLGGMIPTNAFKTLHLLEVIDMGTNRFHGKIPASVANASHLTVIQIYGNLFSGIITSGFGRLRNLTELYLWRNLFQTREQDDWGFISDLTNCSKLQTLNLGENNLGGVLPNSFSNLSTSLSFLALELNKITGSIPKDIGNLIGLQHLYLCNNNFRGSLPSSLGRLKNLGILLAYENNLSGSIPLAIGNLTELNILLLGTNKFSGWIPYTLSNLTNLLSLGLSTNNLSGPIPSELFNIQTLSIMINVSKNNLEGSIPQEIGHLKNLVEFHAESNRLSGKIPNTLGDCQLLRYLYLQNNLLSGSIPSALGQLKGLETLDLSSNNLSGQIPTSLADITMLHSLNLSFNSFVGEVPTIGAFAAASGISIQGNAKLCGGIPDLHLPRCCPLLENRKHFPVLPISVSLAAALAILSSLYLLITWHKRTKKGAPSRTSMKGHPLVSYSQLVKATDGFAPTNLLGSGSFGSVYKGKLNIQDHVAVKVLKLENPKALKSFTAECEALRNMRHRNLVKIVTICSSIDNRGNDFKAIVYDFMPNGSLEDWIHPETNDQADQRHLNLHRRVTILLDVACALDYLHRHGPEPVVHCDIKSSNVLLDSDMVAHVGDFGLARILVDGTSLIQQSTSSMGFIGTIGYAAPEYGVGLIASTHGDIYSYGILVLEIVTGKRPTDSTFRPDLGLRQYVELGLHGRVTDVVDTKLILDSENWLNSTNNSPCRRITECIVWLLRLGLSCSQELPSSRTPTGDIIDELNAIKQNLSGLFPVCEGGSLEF

[3] = test system: Arabidopsis seedlings; design: species or system Arabidopsis thaliana; details: in vivo; remark: listed apart in the source
[4] = test system: tpst-1 seedlings; design: species or system Arabidopsis thaliana; details: in vivo
[5] = target: T1, XA21; assay type: cell-based, Oryza sativa ssp. japonica; remark: listed apart in the source
[6] = test system: rice seedlings; design: species or system Oryza sativa sp. japonica; details: in vivo
[7] = target: T1, XA21; experiment: cell-based; assay type: cell-based, Oryza sativa ssp. japonica

## CC(C)[C@H](NC(=O)[C@@H](N)Cc1c[nH]cn1)C(=O)NCC(=O)NCC(=O)NCC(=O)N[C@@H](CC(=O)O)C(=O)N[C@@H](Cc1ccc(OS(=O)(=O)O)cc1)C(=O)N1CCC[C@H]1C(=O)N1CCC[C@H]1C(=O)N1CCC[C@H]1C(=O)NCC(=O)N[C@@H](C)C(=O)N[C@@H](CC(N)=O)C(=O)N1CCC[C@H]1C(=O)N[C@@H](CCCCN)C(=O)N[C@@H](Cc1c[nH]cn1)C(=O)N[C@@H](CC(=O)O)C(=O)N1CCC[C@H]1C(=O)N1CCC[C@H]1C(=O)N1CCC[C@H]1C(=O)N[C@@H](CCCNC(=N)N)C(=O)O [RaxX21-sY, HVGGGDY^SPPPGANPKHDPPPR] (H-HVGGGD[sY]PPPGANPKHDPPPR-OH)
[1]
  effect on elf18-triggered growth inhibition: do not prevent elf18-triggered growth inhibition
[2]
  defense gene expression: significant RaxX21-sY-mediated upregulation of defense gene expression and ROS production; also recorded: activates gene expression
  defense gene induction (Os06g37224): induced ROS production and defense gene expression changes
  defense marker gene expression (Os04g10100, PR10b, Os12g36830, Os06g37224), temporal changes: able to activate; also recorded: sufficient to activate XA21-mediated defense gene expression
[3]
  average root length: 61 mm
  dose dependent activity on root growth: effective at inducing root growth at concentrations in the low nanomolar range
  root growth promotion: promoted root growth in a similar manner to that observed for AtPSY1; also recorded: promotes root growth in Arabidopsis and rice
  root length: statistically longer root lengths
[4]
  root growth rate: increased root growth rate
[5]
  ethylene production: able to activate
[6]
  root growth: significantly enhanced root growth; also recorded: promotes root growth in Arabidopsis and rice
  root length: significantly longer roots
[7]
  ROS production: significant RaxX21-sY-mediated upregulation of defense gene expression and ROS production; also recorded: induced ROS production and defense gene expression changes; also recorded: activates the production of ROS
  ROS production over 90 min: triggered a ROS response characteristic of the XA21-mediated immune response
  XA21-mediated defense responses (ability to activate XA21-dependent signaling): trigger XA21-mediated defense responses
  total ROS production over 3 h: retained the ability to induce XA21-dependent signaling; also recorded: able to activate

## CC(C)C[C@H](N)C(=O)N[C@@H](Cc1c[nH]c2ccccc12)C(=O)N[C@@H](CCCCN)C(=O)N[C@@H](Cc1c[nH]cn1)C(=O)N[C@H](C(=O)NCC(=O)NCC(=O)NCC(=O)N[C@@H](CC(=O)O)C(=O)N[C@@H](Cc1ccc(OS(=O)(=O)O)cc1)C(=O)N1CCC[C@H]1C(=O)N1CCC[C@H]1C(=O)N1CCC[C@H]1C(=O)NCC(=O)N[C@@H](C)C(=O)N[C@@H](CC(N)=O)C(=O)N1CCC[C@H]1C(=O)N[C@@H](CCCCN)C(=O)N[C@@H](Cc1c[nH]cn1)C(=O)N[C@@H](CC(=O)O)C(=O)N1CCC[C@H]1C(=O)N1CCC[C@H]1C(=O)N1CCC[C@H]1C(=O)N[C@@H](CCCNC(=N)N)C(=O)O)C(C)C [RaxX24-sY]
[7]
  EC50: ~0.03 µM
  XA21-mediated defense responses (ability to activate XA21-dependent signaling): trigger XA21-mediated defense responses
  total ROS production over 3 h: confirmed

## CC(C)C[C@H](NC(=O)[C@H](CCCNC(=N)N)NC(=O)[C@H](CCC(N)=O)NC(=O)[C@H](CC(=O)O)NC(=O)[C@H](CC(C)C)NC(=O)[C@@H]1CCCN1C(=O)[C@H](CCC(=O)O)NC(=O)[C@@H]1CCCN1C(=O)[C@H](CCCNC(=N)N)NC(=O)CNC(=O)[C@@H](N)CCCCN)C(=O)N[C@@H](Cc1c[nH]c2ccccc12)C(=O)N[C@@H](CCCCN)C(=O)N[C@@H](Cc1c[nH]cn1)C(=O)N[C@H](C(=O)NCC(=O)NCC(=O)NCC(=O)N[C@@H](CC(=O)O)C(=O)N[C@@H](Cc1ccc(OS(=O)(=O)O)cc1)C(=O)N1CCC[C@H]1C(=O)N1CCC[C@H]1C(=O)N1CCC[C@H]1C(=O)NCC(=O)N[C@@H](C)C(=O)N[C@@H](CC(N)=O)C(=O)N1CCC[C@H]1C(=O)N[C@@H](CCCCN)C(=O)N[C@@H](Cc1c[nH]cn1)C(=O)N[C@@H](CC(=O)O)C(=O)N1CCC[C@H]1C(=O)N1CCC[C@H]1C(=O)N1CCC[C@H]1C(=O)N[C@@H](CCCNC(=N)N)C(=O)N[C@@H](CC(N)=O)C(=O)N1CCC[C@H]1C(=O)NCC(=O)N[C@@H](Cc1c[nH]cn1)C(=O)N[C@@H](Cc1c[nH]cn1)C(=O)O)C(C)C [RaxX39-sY]
[2]
  defense gene expression (PR10b and Os06g37224): triggers defense gene expression in an XA21-dependent manner; also recorded: activates XA21-mediated defense gene expression
[7]
  XA21-mediated defense responses (ability to activate XA21-dependent signaling): trigger XA21-mediated defense responses

## DY^SGDPSANPKHDPGVPPS [AtPSY1, reference compound]
[1]
  effect on elf18-triggered growth inhibition: do not prevent elf18-triggered growth inhibition
[3]
  dose dependent activity on root growth: less active than RaxX21-sY and PSK
  root growth: increased root growth in a similar manner to that observed for treatment of wild type Col-0 seedlings; also recorded: also responds
[4]
  root growth rate: increased root growth rate
[6]
  root growth: significantly enhanced root growth
[7]
  ROS production over 90 min: failed to induce ROS production

## DY^SPAPGANPRHNPKRPPG [OsPSY1a, reference compound]
[7]
  ROS production over 90 min: failed to induce ROS production

## DY^SPPPGANPKHDP [RaxX13-sY]
[3]
  root growth promotion: still capable of promoting root growth
[6]
  root growth: still capable of promoting root growth
[7]
  ROS production over 90 min: did not induce ROS production

## DY^SPPPGANPKHDPPPR [RaxX16-sY]
[3]
  root growth promotion: still capable of promoting root growth
[6]
  root growth: still capable of promoting root growth
[7]
  ROS production over 90 min: triggered a ROS response characteristic of the XA21-mediated immune response; also recorded: able to recognize

## HVGGGDYPPPGANPKHDPPPR [RaxX21-Y]
[3]
  dose dependent activity on root growth: promoted root growth, but was less active than the sulfated version
[5]
  ethylene production: not

## KGRPEPLDQRLWKHVGGGDYPPPGANPKHDPPPRNPGHH [RaxX39-Y]
[2]
  defense gene expression (PR10b and Os06g37224): does not

## LWKHVGGGDYPPPGANPK [RaxX18-sY]
[7]
  ROS production dose response (activity): completely inactive
  XA21-mediated defense responses (ability to activate XA21-dependent signaling): do not
  total ROS production over 3 h: compromised in this activity

## LWKHVGGGDY^SAPPGSNDRHDPPKP [RaxX24-Xcm-sY]
[3]
  root growth promotion: promoted root growth on Arabidopsis seedlings in a manner similar to that of RaxX21-sY

## LWKHVGGGDY^SPPPGANTKHDPPPK [RaxX24-Xe-sY]
[3]
  root growth promotion: promoted root growth on Arabidopsis seedlings in a manner similar to that of RaxX21-sY

## LWKHVGGGDY^SPPSGPNTKHDPPPP [RaxX24-Xoc-sY]
[3]
  root growth promotion: promoted root growth on Arabidopsis seedlings in a manner similar to that of RaxX21-sY; also recorded: still capable of inducing root growth

## Y^SIY^STQ [PSK, reference compound]
[1]
  effect on elf18-triggered growth inhibition: attenuates elf18-mediated growth inhibition
[3]
  dose dependent activity on root growth: comparable
[7]
  ROS production over 90 min: failed to activate XA21-mediated immune response
